Structures can show the parent of a compound that is named as a salt. Where two headings read alike, the source gives them in different places.
Assays:
CT-26 tumor cells = test: CT-26 intraperitoneal tumor model; format: in vivo, mice; details: for day post challenge by which all mice were dead: excipient control all dead 40 days after
Method: 30 male 6-week-old Balb/c mice, were purchased from the National Animal cancer and maintained in pressurized ventilated cage according to institutional regulations. CT-26 (1×10^6) cells were injected into peritoneal cavities at day 0. Animals were randomly assigned to anti-tumoral efficacy study (n=10). Seven days after tumor inoculation, oral administration of 5 and 10 mg/kg of I-1-b (QD for seven times) to the mice was carried out. The survival rate and body weight of the animals was monitored.

MCF-7 cells = test: Cell viability assay (MTT assay), MCF-7; details: 0.125 to 10 μM, 48 hours; dose-dependent decrease of cell viability
Method: (§1) Cells were seeded in a 24-well microtiter plate (2×10^4 cells/well) overnight, then treated with DMSO (Control) or various concentrations of test compounds, and incubated for 48 hours. The effect of test compounds on cell growth was examined by the MTT (3-(4,5-dimethylthiazol-2-yl)-2,5-diphenyl tetrazolium bromide) assay. Briefly, 40 μl of MTT solution (2 mg/ml, Sigma Chemical Co.) was added to each well to make a final volume of 500 μl and incubated for 1 h at 37° C. The supernatant was aspirated, and the MTT-formazan crystals formed by metabolically viable cells were dissolved in 200 μl of DMSO. Finally, the absorbance at O.D. 550 nm was detected by enzyme-linked immunosorbent assay (ELISA) reader.

[1] = test system: A498 renal cancer cell line; test: Cytotoxic activity, MTT assay, A498; format: cell-based, human; details: 48 h, 50% growth-inhibitory effect
Method: as §1

[2] = test system: NCI-H226 non-small cell lung cancer cell line; test: Cytotoxic activity, MTT assay, NCI-H226; format: cell-based, human; details: 48 h, 50% growth-inhibitory effect
Method: as §1

[3] = test system: Hep G2 hepatoma cancer cell line; test: Cytotoxic activity, MTT assay, Hep G2; format: cell-based, human; details: 48 h, 50% growth-inhibitory effect
Method: as §1

[4] = test system: HCT-116 colon cancer cell line; test: Cytotoxic activity, MTT assay, HCT-116; format: cell-based, human; details: 48 h, 50% growth-inhibitory effect, read-out: IC50 HCT116
Method: as §1

[5] = test system: HL-60 leukemia cancer cell line; test: Cytotoxic activity, MTT assay, HL-60; format: cell-based, human; details: 50% growth-inhibitory effect
Method: as §1

[6] = test system: A549 lung cancer cell line; test: Cytotoxic activity, MTT assay, A549; format: cell-based, human; details: 48 h, 50% growth-inhibitory effect
Method: as §1

[7] = Homo sapiens, Table 2, HL-60 cells, 48 h, read-out: IC50

Compound	melting point [°C]	cytotoxicity against MCF-7 cells (cell viability, MTT) (MCF-7 cells)	IC50 [5, 7] [µM]	other results
O=P(O)(O)Oc1cc(-c2ccccc2)nc2ccccc12 (as salt: phosphate) [Compound I-4-b, 2-Phenylquinolin-4-yl-phosphate]	> 300	–	–	–
O=P(O)(O)Oc1cc(-c2ccccc2F)nc2cc3c(cc12)OCO3 [Compound I-1-b, 2-(2′-Fluorophenyl)-6,7-methylenedioxyquinolin-4-yl-phosphate]	–	significant cytotoxicity	–	average life span prolonged by (CT-26 tumor cells; 5 mg/kg/day QD×7): 120%; day post challenge by which all mice were dead (CT-26 tumor cells; 5 mg/kg/day QD×7): ≤ 45 days; average life span prolonged by (CT-26 tumor cells; 10 mg/kg/day QD×7): 140%; day post challenge by which all mice were dead (CT-26 tumor cells; 10 mg/kg/day QD×7): ≤ 50 days; maximally tolerated dose (CT-26 tumor cells; Balb/c mice, oral, up to 10 mg/kg/day QD×7): not achieved
O=P(O)(O)Oc1cc(-c2cccc(F)c2)nc2cc3c(cc12)OCO3 [Compound I-2-b, 2-(3′-Fluorophenyl)-6,7-methylenedioxyquinolin-4-yl-phosphate]	> 300	significant cytotoxicity	–	–
O=P(O)(O)Oc1cc(-c2ccccc2)nc2ccc(F)cc12 [Compound I-3-b, 6-Fluoro-2-phenylquinolin-4-yl-phosphate]	> 300	significant cytotoxicity	–	–
O=P(O)(O)Oc1cc(-c2ccccc2)nc2ccccc12 [Compound I-4-b, 2-Phenylquinolin-4-yl-phosphate]	–	significant cytotoxicity	–	–
COc1ccc2nc(-c3cccc(F)c3)cc(OP(=O)(O)O)c2c1 [Compound I-5-b, 6-Methoxy-2(3-′fluorophenyl)-quinolin-4-yl-phosphate]	> 300	significant cytotoxicity	–	–
O=c1cc(-c2ccc[se]2)[nH]c2cc3c(cc12)OCO3 [Compound I-7-d, 2-(2′-Selenophenyl)-6,7-(methylenedioxy)-4-quinolone]	–	–	–	IC50 [1]: 2.7 µM; IC50 [2]: 4.9 µM; IC50 [3]: 4.1 µM; IC50 [4]: 0.9 µM; IC50 ([5]; Table 1, 48 h, read-out: IC50 HL-60): 0.5 µM; IC50 [6]: 8.1 µM
CCN(CC)Cc1ccc2[nH]c(-c3ccccc3)cc(=O)c2c1 [Compound I-8-e, 6-[(Diethylamino)methyl]-2-phenylquinolin-4(1H)-one]	–	–	15	–
CCN(CC)Cc1ccc2[nH]c(-c3ccccc3F)cc(=O)c2c1 [Compound I-9-e, 6-[(Diethylamino)methyl]-2-(2-fluorophenyl)quinolin-4(1H)-one]	–	–	5.8	–
CCN(CC)Cc1cccc(-c2cc(=O)c3cc(OC)ccc3[nH]2)c1 [Compound I-10-f, 2-{3-[(Diethylamino)methyl]phenyl}-6-methoxyquinolin-4(1H)-one]	–	–	> 50	–
